# Test results from US9695155B2, “Herbicidal substituted pyrimidinyloxy benzene compounds” (E. I. DU PONT DE NEMOURS AND COMPANY, priority 2013, dated 2017).
# Legend:
# corn [1] = experiment: Test C preemergence; type: in vivo, Zea mays; conditions: for Corn plant response rating: preemergence
# Outline: (§1)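 Seeds are planted in blended loam soil and sand and treated preemergence, while seedlings in a peat moss/vermiculite medium receive postemergence sprays at 2 to 18 cm height. All plants stay in the greenhouse for 13 to 15 days before visual comparison with controls on a 0–100 scale.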
# lambsquarters [2] = experiment: Test C postemergence; type: in vivo, Chenopodium album; conditions: for Plant response rating, Lambsquarters: scale 0 to 100 (0 no effect, 100 complete control)
# Outline: as §1
# wheat = experiment: Test A preemergence; type: in vivo, Triticum aestivum; conditions: 1000 g ai/ha, 0 to 100 scale, 0 no effect, 100 complete control, approx. 10 days
# Outline: (§2)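 Pre- and postemergence greenhouse screen. Soil: loam + sand. Spray carrier: solvent mixture, non-phytotoxic, with surfactant. Post timing at 1–2 leaves, height 2–10 cm. Readout: visual injury on a 0–100 scale roughly 10 days after application, untreated plants as reference.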
# pigweed [3] = experiment: Test A postemergence; type: in vivo, Amaranthus retroflexus; conditions: 1000 g ai/ha, 0 to 100 scale, 0 no effect, 100 complete control
# Outline: as §2
# giant foxtail [4] = experiment: Test C postemergence; type: in vivo, Setaria faberii; conditions: for Plant response rating, Foxtail, Giant: scale 0 to 100 (0 no effect, 100 complete control)
# Outline: as §1
# large (Lg) crabgrass = experiment: Test C postemergence; type: in vivo, Digitaria sanguinalis; conditions: for Plant response rating, Crabgrass, Large: scale 0 to 100 (0 no effect, 100 complete control)
# Outline: as §1
# galium = experiment: Test C preemergence; type: in vivo, Galium aparine; conditions: for Galium plant response rating: preemergence
# Outline: as §1
# soybean = experiment: Test C postemergence; type: in vivo, Glycine max; conditions: for Plant response rating, Soybean: scale 0 to 100 (0 no effect, 100 complete control)
# Outline: as §1
# corn [5] = experiment: Test A postemergence; type: in vivo, Zea mays; conditions: 1000 g ai/ha, 0 to 100 scale, 0 no effect, 100 complete control
# Outline: as §2
# morningglory [6] = experiment: Test C postemergence; type: in vivo, Ipomoea coccinea; conditions: for Plant response rating, Morningglory: scale 0 to 100 (0 no effect, 100 complete control)
# Outline: as §1
# giant foxtail [7] = experiment: Test A postemergence; type: in vivo, Setaria faberii; conditions: 1000 g ai/ha, 0 to 100 scale, 0 no effect, 100 complete control
# Outline: as §2
# ragweed [8] = experiment: Test C postemergence; type: in vivo, Ambrosia elatior; conditions: for Plant response rating, Ragweed: scale 0 to 100 (0 no effect, 100 complete control)
# Outline: as §1
# waterhemp = experiment: Test C postemergence; type: in vivo, Amaranthus rudis; conditions: for Plant response rating, Waterhemp: scale 0 to 100 (0 no effect, 100 complete control)
# Outline: as §1
# ragweed [9] = experiment: Test C preemergence; type: in vivo, Ambrosia elatior; conditions: for Ragweed plant response rating: preemergence
# Outline: as §1
# morningglory [10] = experiment: Test C preemergence; type: in vivo, Ipomoea coccinea; conditions: for Morningglory plant response rating: preemergence
# Outline: as §1
# lambsquarters [11] = experiment: Test C preemergence; type: in vivo, Chenopodium album; conditions: for Lambsquarters plant response rating: preemergence
# Outline: as §1
# pigweed [12] = experiment: Test C postemergence; type: in vivo, Amaranthus retroflexus; conditions: for Plant response rating, Pigweed: scale 0 to 100 (0 no effect, 100 complete control)
# Outline: as §1
# velvetleaf = experiment: Test C preemergence; type: in vivo, Abutilon theophrasti; conditions: for Velvetleaf plant response rating: preemergence
# Outline: as §1
# [13] = 16 g ai/ha, scale 0 to 100 (0 no effect, 100 complete control)
# [14] = 62 g ai/ha, scale 0 (no effect) to 100 (complete control)
# [15] = 125 g ai/ha, scale 0 (no effect) to 100 (complete control)
# [16] = Preemergence, 31 g ai/ha, scale 0 to 100, 0 no effect, 100 complete control
# [17] = 16 g ai/ha, postemergence, 0 is no effect, 100 is complete control
# [18] = 125 g ai/ha, postemergence, visual rating
structure (smiles),measurement,setting,value
N#Cc1cn(-c2c(Br)cccc2Oc2ncc(Cl)cn2)nn1 [Compound 116],Corn plant response rating,corn [1]; [13],0
same,Corn plant response rating,corn [1]; [14],5
same,Corn plant response rating,corn [1]; [15],25
same,"Plant response rating, Corn",corn [1]; [16],0
same,"Plant response rating (0 to 100), Lambsquarters",lambsquarters [2]; [17],5
same,"Plant response rating, Lambsquarters",lambsquarters [2]; [18],80
same,"Plant response rating, Lambsquarters","lambsquarters [2]; Postemergence, 62 g ai/ha",50
same,Wheat plant response rating,wheat,40
same,"Plant response rating, Pigweed",pigweed [3],100
same,"Plant response rating (0 to 100), Foxtail, Giant",giant foxtail [4]; [17],30
same,"Plant response rating, Foxtail, Giant",giant foxtail [4]; [18],10
same,"Plant response rating, Foxtail, Giant","giant foxtail [4]; Postemergence, 62 g ai/ha",40
same,"Plant response rating (0 to 100), Crabgrass, Large",large (Lg) crabgrass; [17],5
same,"Plant response rating, Crabgrass, Large",large (Lg) crabgrass; [18],30
same,"Plant response rating, Crabgrass, Large","large (Lg) crabgrass; Postemergence, 62 g ai/ha",15
same,Galium plant response rating,galium; [13],0
same,Galium plant response rating,galium; [14],100
same,Galium plant response rating,galium; [15],100
same,"Plant response rating, Galium",galium; [16],100
same,"Plant response rating (0 to 100), Soybean",soybean; [17],15
same,"Plant response rating, Soybean",soybean; [18],95
same,"Plant response rating, Soybean","soybean; Postemergence, 62 g ai/ha",60
same,"Plant response rating, Corn",corn [5],60
same,"Plant response rating (0 to 100), Morningglory",morningglory [6]; [17],50
same,"Plant response rating, Morningglory",morningglory [6]; [18],80
same,"Plant response rating, Morningglory","morningglory [6]; Postemergence, 62 g ai/ha",60
same,"Plant response rating, Foxtail, Giant",giant foxtail [7],90
same,"Plant response rating (0 to 100), Ragweed",ragweed [8]; [17],5
same,"Plant response rating, Ragweed",ragweed [8]; [18],70
same,"Plant response rating, Ragweed","ragweed [8]; Postemergence, 62 g ai/ha",25
same,"Plant response rating (0 to 100), Waterhemp",waterhemp; [17],65
same,"Plant response rating, Waterhemp",waterhemp; [18],95
same,"Plant response rating, Waterhemp","waterhemp; Postemergence, 62 g ai/ha",80
same,Ragweed plant response rating,ragweed [9]; [13],0
same,Ragweed plant response rating,ragweed [9]; [14],45
same,Ragweed plant response rating,ragweed [9]; [15],45
same,"Plant response rating, Ragweed",ragweed [9]; [16],5
same,Morningglory plant response rating,morningglory [10]; [13],0
same,Morningglory plant response rating,morningglory [10]; [14],20
same,Morningglory plant response rating,morningglory [10]; [15],20
same,"Plant response rating, Morningglory",morningglory [10]; [16],5
same,Lambsquarters plant response rating,lambsquarters [11]; [13],10
same,Lambsquarters plant response rating,lambsquarters [11]; [14],85
same,Lambsquarters plant response rating,lambsquarters [11]; [15],100
same,"Plant response rating, Lambsquarters",lambsquarters [11]; [16],95
same,"Plant response rating (0 to 100), Pigweed",pigweed [12]; [17],80
same,"Plant response rating, Pigweed",pigweed [12]; [18],95
same,"Plant response rating, Pigweed","pigweed [12]; Postemergence, 62 g ai/ha",90
same,Velvetleaf plant response rating,velvetleaf; [13],20
same,Velvetleaf plant response rating,velvetleaf; [14],100
same,Velvetleaf plant response rating,velvetleaf; [15],100
same,"Plant response rating, Velvetleaf",velvetleaf; [16],70
